Source: ChEMBL document CHEMBL3046832, “Synthesis of some sulfonamides, disubstituted sulfonylureas or thioureas and some structurally related variants. A class of promising antitumor agents” (2007)

Key:
Format in all cases: functional
TK-10 = test: Cytotoxicity against Homo sapiens (human) TK10 cells after 48 hr by SRB assay; settings: TK-10, 48 h
K562 = test: Cytotoxicity against Homo sapiens (human) K562 cells after 48 hr by SRB assay; settings: K562, 48 h
NCI-H460 = test: Cytotoxicity against Homo sapiens (human) NCI-H460 cells after 48 hr by SRB assay; settings: NCI-H460, 48 h
SN12C = test: Cytotoxicity against Homo sapiens (human) SN12C cells after 48 hr by SRB assay
IGROV-1 = test: Cytotoxicity against Homo sapiens (human) IGROV1 cells after 48 hr by SRB assay; settings: IGROV-1, 48 h
OVCAR-4 = test: Cytotoxicity against Homo sapiens (human) OVCAR4 cells after 48 hr by SRB assay; settings: OVCAR-4, 48 h
HCT-116 = test: Cytotoxicity against Homo sapiens (human) HCT116 cells after 48 hr by SRB assay; settings: HCT-116, 48 h
PC-3 = test: Cytotoxicity against Homo sapiens (human) PC3 cells after 48 hr by SRB assay; settings: PC-3, 48 h
MDA-MB-435 = test: Cytotoxicity against Homo sapiens (human) MDA-MB-435 cells after 48 hr by SRB assay; settings: MDA-MB-435, 48 h
CCRF-CEM = test: Cytotoxicity against Homo sapiens (human) CCRF-CEM cells after 48 hr by SRB assay
SNB-75 = test: Cytotoxicity against Homo sapiens (human) SNB75 cells after 48 hr by SRB assay; settings: SNB-75, 48 h
NCI-H226 = test: Cytotoxicity against Homo sapiens (human) NCI-H226 cells after 48 hr by SRB assay; settings: NCI-H226, 48 h
RPMI-8226 = test: Cytotoxicity against Homo sapiens (human) RPMI8226 cells after 48 hr by SRB assay; settings: RPMI-8226, 48 h
MOLT-4 = test: Cytotoxicity against Homo sapiens (human) MOLT4 cells after 48 hr by SRB assay; settings: MOLT-4, 48 h
SK-MEL-2 = test: Cytotoxicity against Homo sapiens (human) SK-MEL-2 cells after 48 hr by SRB assay; settings: SK-MEL-2, 48 h
[1] = Cytotoxicity against Homo sapiens (human) leukemia cells after 48 hr by SRB assay; settings: Leukemia cell
HOP-62 = test: Cytotoxicity against Homo sapiens (human) HOP62 cells after 48 hr by SRB assay; settings: HOP-62, 48 h
HCC 2998 = test: Cytotoxicity against Homo sapiens (human) HCC2998 cells after 48 hr by SRB assay; settings: HCC 2998, 48 h
[2] = Cytotoxicity against Homo sapiens (human) colon cancer cells after 48 hr by SRB assay; settings: Cancer cell lines
[3] = Cytotoxicity against Homo sapiens (human) prostate cancer cells after 48 hr by SRB assay; settings: Cancer cell lines

| SMILES | GI50 (TK-10) | GI50 (NCI-H460) | GI50 (SN12C) | GI50 (IGROV-1) | GI50 (OVCAR-4) | GI50 (PC-3) | GI50 (MDA-MB-435) | GI50 (CCRF-CEM) | GI50 (SNB-75) | GI50 (RPMI-8226) | GI50 (MOLT-4) | GI50 (SK-MEL-2) | GI50 [1] | TGI [1] | GI50 (HOP-62) | GI50 (HCC 2998) | GI50 [2] | TGI [2] | GI50 [3] | TGI [3] | other results |
| --- | --- | --- | --- | --- | --- | --- | --- | --- | --- | --- | --- | --- | --- | --- | --- | --- | --- | --- | --- | --- | --- |
| O=C(NC1CCCCC1)NS(=O)(=O)c1ccc(-n2nc3c(c2-c2cccs2)Cc2ccccc2-3)cc1 | 17.5 µM | 93 µM | 21.5 µM | 4.12 µM | 27 µM | 14.5 µM | 32.5 µM | 1.15 µM | 52.2 µM | 10.7 µM | 49.9 µM | 23.6 µM | 17.9 µM | 26.6 µM | > 100 µM | 6.63 µM | 24.2 µM | 73.3 µM | 23.2 µM | 34.7 µM | GI50 (K562): 10 µM; GI50 (HCT-116): 31.6 µM; GI50 (NCI-H226): 21.3 µM |
| NS(=O)(=O)c1ccc(N2N=C3c4ccccc4CC3C2c2cccs2)cc1 (stereo unspecified) | 13.2 µM | > 100 µM | 23.5 µM | 30 µM | > 100 µM | 22.1 µM | 19.3 µM | 31.8 µM | 31.1 µM | 32.3 µM | 18.9 µM | > 100 µM | 35.1 µM | 95.5 µM | 16.9 µM | 14.8 µM | 28 µM | 74.5 µM | 18.3 µM | 48.6 µM | GI50 (K562): 57.5 µM; GI50 (HCT-116): 10.7 µM |
| NS(=O)(=O)c1ccc(-n2nc3c(c2-c2cccs2)Cc2ccccc2-3)cc1 | 12.2 µM | > 100 µM | 12.2 µM | 2.49 µM | 29.9 µM | 20.6 µM | 11.8 µM | 4.24 µM | 25.5 µM | 6.68 µM | 1.43 µM | 27.6 µM | 3.3 µM | 15.7 µM | 16.5 µM | 12.8 µM | 14.9 µM | 37.2 µM | 22.3 µM | 22.3 µM | GI50 (K562): 0.86 µM; GI50 (HCT-116): 7.67 µM; GI50 (NCI-H226): 4.9 µM |
| O=C1CS/C(=N\S(=O)(=O)c2ccc(N3N=C4c5ccccc5CC4C3c3cccs3)cc2)N1C(=O)c1ccccc1 (stereo unspecified) | 49.6 µM | > 100 µM | 90.7 µM | 28.3 µM | > 100 µM | 38.1 µM | 37.4 µM | 37.5 µM | > 100 µM | 34 µM | 22.2 µM | > 100 µM | 31.2 µM | 84.5 µM | 32.9 µM | 17.6 µM | 40.4 µM | 79.8 µM | 38.1 µM | > 100 µM | GI50 (HCT-116): 22 µM; GI50 (NCI-H226): 58.5 µM |
| O=C(c1ccccc1)n1c(-c2ccccc2)cs/c1=N\S(=O)(=O)c1ccc(N2N=C3c4ccccc4CC3C2c2cccs2)cc1 (stereo unspecified) | 30.5 µM | > 100 µM | 44.4 µM | > 100 µM | > 100 µM | 39.2 µM | 31.1 µM | 41.3 µM | > 100 µM | 32.3 µM | 30.5 µM | > 100 µM | 32.9 µM | 80.3 µM | 23.7 µM | 14 µM | 53.3 µM | 90.4 µM | 43.1 µM | > 100 µM | GI50 (K562): 27.6 µM; GI50 (HCT-116): 30.5 µM; GI50 (NCI-H226): 30.1 µM |
| O=S(=O)(/N=c1\scc(-c2ccccc2)n1-c1ccccc1)c1ccc(N2N=C3c4ccccc4CC3C2c2cccs2)cc1 (stereo unspecified) | 32.7 µM | 95.1 µM | 94.3 µM | – | > 100 µM | 75 µM | 38.7 µM | 50.3 µM | > 100 µM | 51 µM | 19 µM | > 100 µM | 55 µM | 90.9 µM | 73.2 µM | 32.8 µM | 68.1 µM | 96.9 µM | 87.5 µM | > 100 µM | GI50 (K562): > 100 µM; GI50 (NCI-H226): 78.9 µM |
| O=C(NC(=S)NS(=O)(=O)c1ccc(N2N=C3c4ccccc4CC3C2c2cccs2)cc1)c1ccccc1 (stereo unspecified) | – | > 100 µM | 26 µM | 3.14 µM | 87.6 µM | 29.7 µM | 21.7 µM | 27.9 µM | > 100 µM | 29.7 µM | 26.2 µM | 44 µM | 27.9 µM | 77.2 µM | – | – | 35.5 µM | 85.6 µM | 29 µM | > 100 µM | – |
| O=C1CCS/C(=N\S(=O)(=O)c2ccc(N3N=C4c5ccccc5CC4C3c3cccs3)cc2)N1C(=O)c1ccccc1 (stereo unspecified) | 24.5 µM | 26.6 µM | 16.7 µM | 14.5 µM | > 100 µM | 29.2 µM | 22.7 µM | 15 µM | > 100 µM | 58.6 µM | 50.4 µM | 29.4 µM | 37.6 µM | 80.1 µM | 31.1 µM | 18.2 µM | 27.4 µM | 52.6 µM | 26.2 µM | > 100 µM | GI50 (K562): 26.4 µM; GI50 (HCT-116): 10 µM; GI50 (NCI-H226): 15.9 µM |
| O=C1CCS/C(=N\S(=O)(=O)c2ccc(N3N=C4c5ccccc5CC4C3c3cccs3)cc2)N1c1ccccc1 (stereo unspecified) | 32.7 µM | > 100 µM | 94.3 µM | 17.4 µM | 49.3 µM | 75 µM | 38.7 µM | 28 µM | 30.2 µM | 18.1 µM | 47 µM | 28 µM | 48.3 µM | 93.9 µM | 18.6 µM | 17.9 µM | 24.1 µM | 60.7 µM | – | – | GI50 (K562): > 100 µM; GI50 (HCT-116): 20.3 µM; GI50 (NCI-H226): 26.5 µM |
| O=C1CS/C(=N\S(=O)(=O)c2ccc(N3N=C4c5ccccc5CC4C3c3cccs3)cc2)N(c2ccccc2)C1 (stereo unspecified) | – | > 100 µM | 34.3 µM | 19.5 µM | > 100 µM | 45 µM | 29.5 µM | 36.8 µM | > 100 µM | 31 µM | 0.01 µM | 60.2 µM | 19.5 µM | 82.1 µM | 17.4 µM | 20.5 µM | 37.2 µM | 66.3 µM | 37.8 µM | > 100 µM | GI50 (K562): 10.3 µM; GI50 (HCT-116): 12.5 µM; GI50 (NCI-H226): 22.3 µM |
| O=C(Nc1ccccc1)NS(=O)(=O)c1ccc(N2N=C3c4ccccc4CC3C2c2cccnc2)cc1 (stereo unspecified) | 11.7 µM | 38.5 µM | 30.4 µM | 16.2 µM | > 100 µM | 36.2 µM | 21.4 µM | 40.9 µM | > 100 µM | 27.1 µM | 11.6 µM | 35.6 µM | 26.5 µM | 91.4 µM | 20.4 µM | 17.3 µM | 26.2 µM | 78.7 µM | 36.4 µM | 52.1 µM | GI50 (K562): 26.6 µM; GI50 (HCT-116): 15.3 µM; GI50 (NCI-H226): 23.7 µM |
| O=S(=O)(NC(=S)Nc1ccccc1)c1ccc(N2N=C3c4ccccc4CC3C2c2cccs2)cc1 (stereo unspecified) | 12.2 µM | 24.6 µM | 21.4 µM | 65.3 µM | 69.8 µM | 22.9 µM | 19.4 µM | 30.5 µM | 71.9 µM | 30.3 µM | 17.5 µM | 55.9 µM | 27.4 µM | 85 µM | 20.3 µM | 13.9 µM | 25.9 µM | 75.9 µM | 20.3 µM | 47.9 µM | GI50 (K562): 31.3 µM; GI50 (HCT-116): 15.1 µM; GI50 (NCI-H226): 27.2 µM |
| O=C(Nc1ccccc1)NS(=O)(=O)c1ccc(-n2nc3c(c2-c2cccs2)Cc2ccccc2-3)cc1 | 4.99 µM | 18.9 µM | 19.9 µM | 21.4 µM | 34.9 µM | 10.4 µM | 22.1 µM | 13.6 µM | 70.4 µM | 5.49 µM | 15.5 µM | 70.1 µM | 12.1 µM | 85.6 µM | 18.1 µM | 15.3 µM | 20.4 µM | 37.2 µM | 19.5 µM | 98.1 µM | GI50 (K562): 14 µM; GI50 (HCT-116): 9.13 µM; GI50 (NCI-H226): 19.2 µM |
